In the supplement of paper PMC10307832:

What was measured:
Test in all cases: relative viability (nuclei count vs DMSO), 5 days (fraction); higher = more cells survive
Bemcentinib + Alpelisib = compound: Nc1nc(Nc2ccc3c(c2)CC[C@@H](N2CCCC2)CC3)nn1-c1cc2c(nn1)-c1ccccc1CCC2 [Bemcentinib] + Cc1nc(NC(=O)N2CCC[C@H]2C(N)=O)sc1-c1ccnc(C(C)(C)C(F)(F)F)c1 [Alpelisib] (partner 2 µM)
Outline: (§1)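 For relative viability, nuclei counts in treated wells were divided by those in vehicle wells. Lung cancer cell lines had been pin-tool dosed in 1536-well plates the day after seeding and cultured for 5 days, then fixed and stained in one step (final 0.05% Triton X-100, 1% formaldehyde, 1 ug/ml Hoechst) and imaged at 4×. Doses were one drug alone or a fixed anchor-drug dose plus five library-drug doses (not always all listed) in √10 steps, and values are duplicate-plate medians.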

Axitinib + Crizotinib = compound: CNC(=O)c1ccccc1Sc1ccc2c(/C=C/c3ccccn3)n[nH]c2c1 [Axitinib] + C[C@@H](Oc1cc(-c2cnn(C3CCNCC3)c2)cnc1N)c1c(Cl)ccc(F)c1Cl [Crizotinib] (partner 1 µM)
Outline: as §1

Axitinib + Alpelisib = compound: CNC(=O)c1ccccc1Sc1ccc2c(/C=C/c3ccccn3)n[nH]c2c1 [Axitinib] + Cc1nc(NC(=O)N2CCC[C@H]2C(N)=O)sc1-c1ccnc(C(C)(C)C(F)(F)F)c1 [Alpelisib] (partner 2 µM)
Outline: as §1

[1] = compound: CC1=CC=C(C=C1)C(=O)CN2C3=C(CCCC3)SC2=N [Pifithrin_alpha] + Cc1nc(NC(=O)N2CCC[C@H]2C(N)=O)sc1-c1ccnc(C(C)(C)C(F)(F)F)c1 [Alpelisib] (partner 2 µM)
Outline: as §1

Cell Line	relative viability (Bemcentinib + Alpelisib; first compound 0.04 µM)	relative viability (Bemcentinib + Alpelisib; first compound 0.1265 µM)	relative viability (Bemcentinib + Alpelisib; first compound 0.4 µM)	relative viability (Bemcentinib + Alpelisib; first compound 1.265 µM)	relative viability (Bemcentinib + Alpelisib; first compound 4 µM)	relative viability (Axitinib + Crizotinib; first compound 0.005 µM)	relative viability (Axitinib + Crizotinib; first compound 0.01581 µM)	relative viability (Axitinib + Crizotinib; first compound 0.05 µM)	relative viability (Axitinib + Crizotinib; first compound 0.1581 µM)	relative viability (Axitinib + Crizotinib; first compound 0.5 µM)	relative viability (Axitinib + Alpelisib; first compound 0.005 µM)	relative viability (Axitinib + Alpelisib; first compound 0.01581 µM)	relative viability (Axitinib + Alpelisib; first compound 0.05 µM)	relative viability (Axitinib + Alpelisib; first compound 0.1581 µM)	relative viability (Axitinib + Alpelisib; first compound 0.5 µM)	relative viability ([1]; first compound 3.162 µM)	relative viability ([1]; first compound 10 µM)	relative viability ([1]; first compound 31.62 µM)	relative viability ([1]; first compound 100 µM)	relative viability ([1]; first compound 1 µM)
NCI-H2405	0.728	0.732	0.847	0.756	0.72	0.822	0.972	0.831	0.754	0.852	0.854	0.847	0.854	0.877	0.849	0.723	0.718	0.675	0.665	
NCI-H3122	0.447	0.825	0.829	0.819	0.82	0.205	0.276	0.274	0.314	0.267	0.753	0.719	0.843	0.711	0.792	0.864	0.912	0.812	0.917	0.859
PC-3 [JPC-3]	0.986	1.1	0.985	1.1	1.08	1.04		0.943	0.95	1.11	1.09		1	1.04	1.12	0.945	0.975	0.884	0.882	0.953
PC-14	0.995	1.01	0.925	0.985	1.04	0.954	0.959	0.849	0.937	0.984	1.02	0.931	0.94	0.893	1.05	0.953	0.975	0.771	0.848	0.952
RERF-LC-KJ	0.748	0.785	0.91	0.859	0.919	0.801	0.856	0.862	0.771	0.823	0.87	0.767	0.842	0.77	0.876	0.791	0.807	0.707	0.682	0.983
SK-LU-1	1.08	1.13	1.1	1.1	1.1	0.999	1.12	1.11	1.02	1.1	1.11	1.32	1.05	1.06	1.63	1.19	1.13	0.766	1.16	0.828
SK-MES-1	0.914	0.973	0.998	1.08	1.08	1.06	0.974	1.07	1.02	1.11	0.981	0.974	1.04	0.943	1.12	0.955	0.851	0.626	0.775	0.882
SW 1573	0.716	0.803	0.909	0.886	0.88	0.745	0.844	0.905	0.917	0.913	0.766	0.954	0.783	0.774	0.738	0.824	0.816	0.647	0.729	0.715
UMC-11	1.08	1.19	1.11	0.968	1.05	0.556	0.59	0.59	0.584	0.482	1.08	0.871	0.959	1.03	1.16	1.07	1.05	0.842	1.16	1.09
